# Assay results taken from patent US4021557A, “11-Aminoalkyl-pyridobenzodiazepinones and salts thereof” (Boehringer Ingelheim GmbH, priority 1974, dated 1977).
# Legend:
# [1] = tested on: acetylcholine-induced bronchospasm; test: Antagonism to acetylcholine-provoked bronchospasm in anesthetized guinea pigs (Konzett and Rossler), i.v.; antiasthmatic / bronchospasmolytic activity; assay type: in vivo; conditions: guinea pig; for ED50: Cavia porcellus, iv, 20γ acetylcholine per kg i.v., graphic extrapolation, read-out: Bronchospasmolytic ED50 against acetylcholine-induced bronchospasm
# Method: The antiasthmatic activity was tested as the antagonism to bronchospasm provoked by intravenous administration of 20γ of acetylcholine per kg body weight in anesthetized guinea pigs (according to method of Konzett and Rossler). From the average percentage decrease of the bronchospasm produced by administering various doses of the compounds of the […] invention an ED50 was determined by graphic extrapolation. The compounds were administered intravenously.
# [2] = Acute toxicity after i.v. administration in NMRI-mice (Litchfield and Wilcoxon); conditions: mouse, in vivo, iv, both sexes, deaths within 14 days, read-out: LD50 in the mouse after i.v. application
# Method: The acute toxicity was determined with NMRI-mice of both sexes (body weight 20 gm) after intravenous administration of the compound. 0.1 ml of a 0.9% sodium chloride solution per 10gm of animal was used as the vehicle.
# [3] = tested on: heart rate; test: Effect on heart rate of the anesthetized cat after intravenous administration; assay type: in vivo; set-up: key to type of the reaction (heart rate): --: decrease in heart rate; conditions: i.v.; for ED10 (dose leading to a 10% alteration of the heart rate) / ED25 (dose leading to a 25% alteration of the heart rate): graphic extrapolation; for type of the reaction (heart rate): tested dosage range 250 - 4,000 γ/kg (A 12.5 - 16,000; W 125 - 4,000)
# Method: The effect on the heart rate was tested on cats of both sexes (body weight between 2.3 and 3.5 kg) under chloralose-urethane anesthesia. The heart rate was continuously registered by means of a Grass-tachograph 7P4, controlled by the R-wave of the electrocardiogram. The test compound was injected through a catheter introduced into the vena femoralis.
smiles,measurement,setting,value
"CN(C)CCN1c2ccccc2N(C)C(=O)c2cccnc21.Cl [B, 6,11-dihydro-11-(2'-dimethylamino-ethyl)-6-methyl-5H-pyrido[2,3-b][1,5]benzodiazepin-5-one hydrochloride]",ED50,[1],0.148 mg/kg
same,Average duration of effective action in the ED50 range,[1],> 110 min
same,LD50 at 336 h,[2],25.8 mg/kg
"CN(C)CCCN1c2ccccc2N(C)C(=O)c2cccnc21.Cl [C, 6,11-dihydro-11-(3'-dimethylamino-n-propyl)-6-methyl-5H-pyrido[2,3-b][1,5]benzodiazepin-5-one hydrochloride]",ED50,[1],0.081 mg/kg
same,Average duration of effective action in the ED50 range,[1],> 60 min
same,LD50 at 336 h,[2],30.7 mg/kg
same,ED10 (dose leading to a 10% alteration of the heart rate),[3],"> 4,000 γ/kg"
same,type of the reaction (heart rate),[3],--
"CNCCCN1c2ccccc2N(C)C(=O)c2cccnc21.Cl [D, 6,11-dihydro-6-methyl-11-(3'-methylamino-n-propyl)-5H-pyrido[2,3-b][1,5]benzodiazepin-5-one hydrochloride]",ED50,[1],0.155 mg/kg
same,Average duration of effective action in the ED50 range,[1],45 min
same,LD50 at 336 h,[2],43.2 mg/kg
"CCNCCCN1c2ccccc2N(C)C(=O)c2cccnc21.Cl [E, 11-(3'-ethylamino-n-propyl)-6,11-dihydro-6-methyl-5H-pyrido[2,3-b][1,5]benzodiazepin-5-one hydrochloride]",ED50,[1],0.068 mg/kg
same,Average duration of effective action in the ED50 range,[1],> 90 min
same,LD50 at 336 h,[2],56.1 mg/kg
same,ED10 (dose leading to a 10% alteration of the heart rate),[3],"1,050 γ/kg"
same,ED25 (dose leading to a 25% alteration of the heart rate),[3],"> 4,000 γ/kg"
same,type of the reaction (heart rate),[3],--
"CC(C)NCCCN1c2ccccc2N(C)C(=O)c2cccnc21.Cl [F, 6,11-dihydro-11-(3'-isopropylamino-n-propyl)-6-methyl-5H-pyrido[2,3-b][1,5]benzodiazepin-5one hydrochloride]",ED50,[1],0.172 mg/kg
same,Average duration of effective action in the ED50 range,[1],> 110 min
same,LD50 at 336 h,[2],43.5 mg/kg
"CCN(CC)CCN1c2ccccc2N(C)C(=O)c2cccnc21.Cl [G, 11-(2'-diethylamino-ethyl)-6,11-dihydro-6-methyl-5H-pyrido[2,3-b][1,5]benzodiazepin-5-one hydrochloride]",ED50,[1],0.044 mg/kg
same,Average duration of effective action in the ED50 range,[1],50 min
same,LD50 at 336 h,[2],27.1 mg/kg
"CCCN(CCC)CCCN1c2ccccc2N(C)C(=O)c2cccnc21.Cl [H, 6,11-dihydro-11-(3'-di-n-propylamino-n-propyl)-6-methyl-5H-pyrido[2,3-b][1,5]benzodiazepin-5-one hydrochloride]",ED50,[1],0.095 mg/kg
same,Average duration of effective action in the ED50 range,[1],> 70 min
same,LD50 at 336 h,[2],21.7 mg/kg
"CC(C)N(CCN1c2ccccc2N(C)C(=O)c2cccnc21)C(C)C.Cl [I, 6,11-dihydro-11-(2'-diisopropylamino-ethyl)-6-methyl-5H-pyrido[2,3-b][1,5]benzodiazepin-5-one hydrochloride]",ED50,[1],0.018 mg/kg
same,Average duration of effective action in the ED50 range,[1],40 min
same,LD50 at 336 h,[2],30.3 mg/kg
same,ED10 (dose leading to a 10% alteration of the heart rate),[3],"1,300 γ/kg"
same,ED25 (dose leading to a 25% alteration of the heart rate),[3],"> 4,000 γ/kg"
same,type of the reaction (heart rate),[3],--
"CN1C(=O)c2cccnc2N(CCCN2CCCC2)c2ccccc21.Cl [L, 6,11-dihydro-6-methyl-11-(3'-pyrrolidino-n-propyl)-5H-pyrido[2,3-b][1,5]benzodiazepin-5one hydrochloride]",ED50,[1],0.043 mg/kg
same,Average duration of effective action in the ED50 range,[1],120 min
same,LD50 at 336 h,[2],22.7 mg/kg
same,ED10 (dose leading to a 10% alteration of the heart rate),[3],"1,900 γ/kg"
same,ED25 (dose leading to a 25% alteration of the heart rate),[3],"3,950 γ/kg"
same,type of the reaction (heart rate),[3],--
"CN1C(=O)c2cccnc2N(CCCN2CCCCC2)c2ccccc21.Cl [M, 6,11-dihydro-6-methyl-11-(3'-piperidino-n-propyl)-5H-pyrido[2,3-b][1,5]benzodiazepin-5-one hydrochloride]",ED50,[1],0.063 mg/kg
same,Average duration of effective action in the ED50 range,[1],> 60 min
same,LD50 at 336 h,[2],10.6 mg/kg
same,ED10 (dose leading to a 10% alteration of the heart rate),[3],"1,400 γ/kg"
same,ED25 (dose leading to a 25% alteration of the heart rate),[3],"> 4,000 γ/kg"
same,type of the reaction (heart rate),[3],--
"CN1C(=O)c2cccnc2N(CCCN2CCCCCC2)c2ccccc21.Cl [N, 6,11-dihydro-11-(3'-hexamethyleneimino-n-propyl)-6-methyl-5H-pyrido[2,3-b][1,5]benzodiazepin-5-one hydrochloride]",ED50,[1],0.064 mg/kg
same,Average duration of effective action in the ED50 range,[1],> 50 min
same,LD50 at 336 h,[2],12.7 mg/kg
"CN1C(=O)c2cccnc2N(CCN2CCCC2)c2ccccc21.Cl [O, 6,11-dihydro-6-methyl-11-(2'-pyrrolidino-ethyl)-5H-pyrido[2,3-b][1,5]benzodiazepin-5-one hydrochloride]",ED50,[1],0.097 mg/kg
same,Average duration of effective action in the ED50 range,[1],> 30 min
same,LD50 at 336 h,[2],11.4 mg/kg
same,ED10 (dose leading to a 10% alteration of the heart rate),[3],"> 4,000 γ/kg"
same,type of the reaction (heart rate),[3],--
"CCN(CC)CCN1c2ccccc2C(=O)N(C)c2cccnc21.Cl [P, 11-(2'-diethylamino-ethyl)-5,11-dihydro-5-methyl-6H-pyrido[2,3-b][1,4]benzodiazepin-6-one hydrochloride]",ED50,[1],0.21 mg/kg
same,Average duration of effective action in the ED50 range,[1],110 min
"CC(C)N(CCN1c2ccccc2C(=O)N(C)c2cccnc21)C(C)C.Cl [Q, 5,11-dihydro-11-(2'-diisopropylamino-ethyl)-5-methyl-6H-pyrido[2,3-b][1,4]benzodiazepin-6-one hydrochloride]",ED50,[1],0.053 mg/kg
same,Average duration of effective action in the ED50 range,[1],> 50 min
same,LD50 at 336 h,[2],27 mg/kg
"CN(C)CCCN1c2ccccc2C(=O)N(C)c2cccnc21 [R, 5,11-dihydro-11-(3'-dimethylamino-n-propyl)-5-methyl-6H-pyrido[2,3-b][1,4]benzodiazepin-6-one]",ED50,[1],0.19 mg/kg
same,Average duration of effective action in the ED50 range,[1],> 50 min
"CCN(CC)CCCN1c2ccccc2C(=O)N(C)c2cccnc21.Cl [S, 5,11-dihydro-11-(3'-diethylamino-n-propyl)-5-methyl-6H-pyrido[2,3-b][1,4]benzodiazepin-6-one hydrochloride]",ED50,[1],0.123 mg/kg
same,Average duration of effective action in the ED50 range,[1],> 110 min
"CC(C)N(CCCN1c2ccccc2C(=O)N(C)c2cccnc21)C(C)C.Cl [T, 5,11-dihydro-11-(3'-diisopropylamino-n-propyl)-5-methyl-6H-pyrido[2,3-b][1,4]benzodiazepin-6-one hydrochloride]",ED50,[1],0.0165 mg/kg
same,Average duration of effective action in the ED50 range,[1],50 min
same,LD50 at 336 h,[2],22.2 mg/kg
same,ED10 (dose leading to a 10% alteration of the heart rate),[3],"1,400 γ/kg"
same,ED25 (dose leading to a 25% alteration of the heart rate),[3],"3,600 γ/kg"
same,type of the reaction (heart rate),[3],--
"CN1C(=O)c2ccccc2N(CCCN2CCCC2)c2ncccc21.Cl [U, 5,11-dihydro-5-methyl-11-(3-pyrrolidino-n-propyl)-6H-pyrido[2,3-b][1,4]benzodiazepin-6-one hydrochloride]",ED50,[1],0.105 mg/kg
same,Average duration of effective action in the ED50 range,[1],> 50 min
same,LD50 at 336 h,[2],22.9 mg/kg
same,ED10 (dose leading to a 10% alteration of the heart rate),[3],"2,300 γ/kg"
same,ED25 (dose leading to a 25% alteration of the heart rate),[3],"> 4,000 γ/kg"
same,type of the reaction (heart rate),[3],--
"CN1C(=O)c2ccccc2N(CCCN2CCCCC2)c2ncccc21.Cl [V, 5,11-dihydro-5-methyl-11-(3'-piperidino-n-propyl)-6H-pyrido[2,3-b][1,4]benzodiazepin-6-one hydrochloride]",ED50,[1],0.18 mg/kg
same,Average duration of effective action in the ED50 range,[1],> 110 min
same,LD50 at 336 h,[2],13.4 mg/kg
same,ED10 (dose leading to a 10% alteration of the heart rate),[3],"1,100 γ/kg"
same,ED25 (dose leading to a 25% alteration of the heart rate),[3],"> 4,000 γ/kg"
same,type of the reaction (heart rate),[3],--
"CN1C(=O)c2ccccc2N(CCCN2CCCCCC2)c2ncccc21.Cl [W, 5,11-dihydro-11-(3'-hexamethyleneimino-n-propyl)-5-methyl-6H-pyrido[2,3-b][1,4]benzodiazepin-6-one hydrochloride]",ED50,[1],0.215 mg/kg
same,Average duration of effective action in the ED50 range,[1],> 40 min
same,LD50 at 336 h,[2],13.4 mg/kg
same,ED10 (dose leading to a 10% alteration of the heart rate),[3],"1,200 γ/kg"
same,ED25 (dose leading to a 25% alteration of the heart rate),[3],"> 4,000 γ/kg"
same,type of the reaction (heart rate),[3],--
